For this assay, the system named is P. falciparum NF54 strain. In words: [3H]-hypoxanthine incorporation assay, asexual blood stage. It counts as cell-based, Plasmodium falciparum. Conditions: for IC50: Plasmodium falciparum, NF54, asexual blood stage, mean ± s.d., read-out: PfNF54 IC50 ± s.d. As for the experimental part:
P. falciparum asexual blood stage parasites were cultured in human red blood cells (RBC, Blutspende SRK, Zurich) at a hematocrit of 5% in RPMI 1640 medium. The RPMI 1640 medium (ThermoFisher Scientific #51800−043) was supplemented with the following: 24 mM NaHCO3 (pH 7.3, Sigma-Aldrich #31437−500G-R), 25 mM Hepes (Sigma-Aldrich #H4034−500G), 0.36 mM hypoxanthine (Sigma-Aldrich # H9377−25G), 100 µg mL^-1 neomycin (Sigma-Aldrich #N6386−100G) and 0.5% Albumax II (Thermo Fisher #11021−045). Additionally, 2 mM choline chloride (279 mg/L, Sigma-Aldrich #C7527−100G) was added to the culture to block the induction of sexual commitment as described. ^[31^] The RPMI 1640 medium and components were dissolved in water (Milli-Q purified), stirred for at least 3 h, and then sterile filtered (0.22 μm pore size) with a bottle top filter (Corning # 431118). Parasite cultures were maintained in an atmosphere of 3% O2, 4% CO2, and 93% N2 in air-tight chambers at 37 °C. The [^3H]-hypoxanthine incorporation assay was used to test compound activity in the specific parasite lines as described.^[32^] Briefly, compounds were dissolved in DMSO (10 mM) and diluted in a hypoxanthine-free culture medium. A limiting dilution was performed over a 64-fold range (6-step twofold dilution) in a 96-well plate in duplicates. For every starting concentration, a limiting dilution was performed over a 64-fold range (6-step twofold dilution) in a 96-well plate in two biological duplicates. Parasites were added at 100 µL to each well containing the compound to obtain a final parasitemia of 0.3% and haematocrit of 1.25%. The plates were incubated for 48 h before 0.25 µCi of [^3H]-hypoxanthine was added per well for an additional 24 h. Parasites were harvested on a glass-fiber filter with a Microbeta FilterMate cell harvester (Perkin Elmer, Waltham, USA) and radioactivity was counted using a MicroBeta2 liquid scintillation counter (Perkin Elmer, Waltham, US). […] The fifty percent inhibitory concentration (IC50) was calculated by using nonlinear, four parameter (variable slope) curve fitting as described ^[33^] after importing into GraphPad Prism (version 8.3.0).

As a reminder, the IC50 is the midpoint of a concentration-inhibition curve. Turning to `COc1ccc(S(=O)(=O)N2CCCC2)cc1NC(=O)c1cccc(Oc2ccccc2)c1` [Compound 2, N-(2-Methoxy-5-(pyrrolidin-1-ylsulfonyl)phenyl)-3-phenoxybenzamide], the IC50 was greater than 10000 nM.

Turning to `COc1ccc(S(=O)(=O)N2CCCC2)cc1N(C)C(=O)c1cccc(Oc2ccccc2)c1` [Compound 3, N-(2-methoxy-5-(pyrrolidin-1-ylsulfonyl)phenyl)-N-methyl-3-phenoxybenzamide], the IC50 was greater than 10000 nM.

As to `CN(C(=O)c1cccc(Oc2ccccc2)c1)c1cc(S(=O)(=O)N2CCCC2)ccc1O` [Compound 4, N-(2-Hydroxy-5-(pyrrolidin-1-ylsulfonyl)phenyl)-N-methyl-3-phenoxybenzamide], the IC50 was greater than 10000 nM.

Turning to `O=C(Nc1cccc(S(=O)(=O)N2CCCC2)c1)c1cccc(Oc2ccccc2)c1` [Compound 5, 3-Phenoxy-N-(3-(pyrrolidin-1-ylsulfonyl)phenyl)benzamide], the IC50 came to 4930 ± 97.8 nM.

`NS(=O)(=O)c1ccc(O)c(NC(=O)c2cccc(Oc3ccccc3)c2)c1` [Compound 6, N-(2-Hydroxy-5-sulfamoylphenyl)-3-phenoxybenzamide]: the IC50 was found to be 777 ± 86 nM.

`CCS(=O)(=O)c1ccc(O)c(NC(=O)c2cccc(Oc3ccccc3)c2)c1` [Compound 7, N-(5-(Ethylsulfonyl)-2-hydroxyphenyl)-3-phenoxybenzamide]: the IC50 was found to be 217 ± 42.4 nM.

Regarding `CCCCNS(=O)(=O)c1ccc(O)c(NC(=O)c2cccc(Oc3ccccc3)c2)c1` [Compound 8, N-(5-(N-Butylsulfamoyl)-2-hydroxyphenyl)-3-phenoxybenzamide], the IC50 was 1910 ± 254 nM.

For the molecule `O=C(Nc1cc(S(=O)(=O)N2CCCCC2)ccc1O)c1cccc(Oc2ccccc2)c1` [Compound 9, N-(2-Hydroxy-5-(piperidin-1-ylsulfonyl)phenyl)-3-phenoxybenzamide], the IC50 stood at 574 ± 66.5 nM.

In the case of `CC1(C)CCN(S(=O)(=O)c2ccc(O)c(NC(=O)c3cccc(Oc4ccccc4)c3)c2)C1` [Compound 10, N-(5-((3,3-diMethylpyrrolidin-1-yl)sulfonyl)-2-hydroxyphenyl)-3-phenoxybenzamide], the IC50 was 1410 ± 147 nM.

For `CC1CCN(S(=O)(=O)c2ccc(O)c(NC(=O)c3cccc(Oc4ccccc4)c3)c2)CC1` [Compound 11, N-(2-Hydroxy-5-((4-methylpiperidin-1-yl)sulfonyl)phenyl)-3-phenoxybenzamide], the IC50 worked out at 1030 ± 116 nM.

Turning to `O=C(Nc1cc(S(=O)(=O)N2CCOCC2)ccc1O)c1cccc(Oc2ccccc2)c1` [Compound 12, N-(2-Hydroxy-5-(morpholinosulfonyl)phenyl)-3-phenoxybenzamide], the IC50 worked out at 197 ± 28 nM.

As to `O=C(Nc1cc(S(=O)(=O)NCC2CCCCC2)ccc1O)c1cccc(Oc2ccccc2)c1` [Compound 13, N-(5-(N-(Cyclohexylmethyl)sulfamoyl)-2-hydroxyphenyl)-3-phenoxybenzamide], the IC50 is greater than 10000 nM.

`O=C(Nc1cc(S(=O)(=O)NCc2ccccc2)ccc1O)c1cccc(Oc2ccccc2)c1` [Compound 14, N-(5-(N-Benzylsulfamoyl)-2-hydroxyphenyl)-3-phenoxybenzamide]: the IC50 worked out at 2780 ± 389 nM.

Turning to `O=C(Nc1cc(S(=O)(=O)N2CCCC2)ccc1O)c1ccc(Oc2ccccc2)cc1` [Compound 15, N-(2-Hydroxy-5-(pyrrolidin-1-ylsulfonyl)phenyl)-4-phenoxybenzamide], the IC50 worked out at 539 ± 92.2 nM.

As for `O=C(Nc1cc(S(=O)(=O)N2CCCC2)ccc1O)c1cccc(Oc2cccc(F)c2)c1` [Compound 16, 3-(3-Fluorophenoxy)-N-(2-hydroxy-5-(pyrrolidin-1-ylsulfonyl)phenyl)benzamide], the IC50 turned out to be 361 ± 83 nM.

`O=C(Nc1cc(S(=O)(=O)N2CCCC2)ccc1O)c1cccc(Oc2ccc(Cl)c(C(F)(F)F)c2)c1` [Compound 17, 3-(4-Chloro-3-(trifluoromethyl)phenoxy)-N-(2-hydroxy-5-(pyrrolidin-1-ylsulfonyl)phenyl)benzamide]: the IC50 stood at 2315 ± 8.5 nM.

For `Cc1ccc(C(C)C)cc1Oc1cccc(C(=O)Nc2cc(S(=O)(=O)N3CCCC3)ccc2O)c1` [Compound 18, N-(2-hydroxy-5-(pyrrolidin-1-ylsulfonyl)phenyl)-3-(5-isopropyl-2-methylphenoxy)benzamide], the IC50 was 1500 ± 81.2 nM.

With `O=C(Nc1cc(S(=O)(=O)N2CCCC2)ccc1O)c1cccc(Oc2ccccn2)c1` [Compound 19, N-(2-Hydroxy-5-(pyrrolidin-1-ylsulfonyl)phenyl)-3-(pyridin-2-yloxy)benzamide], the IC50 is 1450 ± 80 nM.

On to `O=C(Nc1cc(S(=O)(=O)N2CCCC2)ccc1O)c1cccc(Oc2cccc(Cl)n2)c1` [Compound 20, 3-((6-Chloropyridin-2-yl)oxy)-N-(2-hydroxy-5-(pyrrolidin-1-ylsulfonyl)phenyl)benzamide], for which the IC50 was 746 ± 21.3 nM.

As for `O=C(Nc1cc(S(=O)(=O)N2CCCC2)ccc1O)c1cccc(Oc2cccc(C(F)(F)F)n2)c1` [Compound 21, N-(2-Hydroxy-5-(pyrrolidin-1-ylsulfonyl)phenyl)-3-((6-(trifluoromethyl)pyridin-2-yl)oxy)benzamide], the IC50 is greater than 10000 nM.

In the case of `Cc1cc(C(F)(F)F)cc(Oc2cccc(C(=O)Nc3cc(S(=O)(=O)N4CCCC4)ccc3O)c2)n1` [Compound 22, N-(2-hydroxy-5-(pyrrolidin-1-ylsulfonyl)phenyl)-3-((6-methyl-4-(trifluoromethyl)pyridin-2-yl)oxy)benzamide], the 50% inhibitory concentration (IC50) was 216 ± 32.3 nM.

For `O=C(Nc1cc(S(=O)(=O)N2CCCC2)ccc1O)c1cccc(Oc2cc(C(F)(F)F)ccn2)c1` [Compound 23, N-(2-Hydroxy-5-(pyrrolidin-1-ylsulfonyl)phenyl)-3-((4-(trifluoromethyl)pyridin-2-yl)oxy)benzamide], the IC50 is 69 nM. Also, the “fold increased activity compared to the initial hit molecule 1” value (PfNF54 IC50) is given as “about 8 fold”.

Take `CC(C)c1ccc(O)c(NC(=O)c2cccc(Oc3cc(C(F)(F)F)ccn3)c2)c1` [Compound 25, N-(2-Hydroxy-5-isopropylphenyl)-3-((4-(trifluoromethyl)pyridin-2-yl)oxy)benzamide]: the IC50 was found to be 34 ± 4 nM.

As to `O=C(Nc1cc(-n2cnnc2)ccc1O)c1cccc(Oc2cc(C(F)(F)F)ccn2)c1` [Compound 26, N-(2-Hydroxy-5-(4H-1,2,4-triazol-4-yl)phenyl)-3-((4-(trifluoromethyl)pyridin-2-yl)oxy)benzamide], the IC50 is 158 ± 15.6 nM.

`CCN(CC)CCCNCc1ccc(O)c(NC(=O)c2cccc(Oc3cc(C(F)(F)F)ccn3)c2)c1` [Compound 28, N-(5-(((3-(diEthylamino)propyl)amino)methyl)-2-hydroxyphenyl)-3-((4-(trifluoromethyl)pyridin-2-yl)oxy)benzamide]: the 50% inhibitory concentration (IC50) was found to be 41 ± 17.2 nM.

`CN(Cc1ccc(O)c(NC(=O)c2cccc(Oc3cc(C(F)(F)F)ccn3)c2)c1)C1CCCCC1` [Compound 29, N-(5-((Cyclohexyl(methyl)amino)methyl)-2-hydroxyphenyl)-3-((4-(trifluoromethyl)pyridin-2-yl)oxy)benzamide]: the IC50 was 7.6 ± 1.8 nM.

With `O=C(Nc1cc(CN2CCOCC2)ccn1)c1cccc(Oc2cc(C(F)(F)F)ccn2)c1` [Compound 35, N-(4-(Morpholinomethyl)pyridin-2-yl)-3-((4-(trifluoromethyl)pyridin-2-yl)oxy)benzamide], the IC50 is greater than 10000 nM.

As to `Oc1ccc(CN2CCOCC2)cc1NCc1cccc(Oc2cc(C(F)(F)F)ccn2)c1` [Compound 36, 4-(Morpholinomethyl)-2-((3-((4-(trifluoromethyl)pyridin-2-yl)oxy)benzyl)amino)phenol], the IC50 was found to be 808 ± 172 nM.

As for `Oc1ccc(CN2CCOCC2)cc1-n1cc(-c2cccc(Oc3cc(C(F)(F)F)ccn3)c2)nn1` [Compound 37, 4-(Morpholinomethyl)-2-(4-(3-((4-(trifluoromethyl)pyridin-2-yl)oxy)phenyl)-1H-1,2,3-triazol-1-yl)phenol], the IC50 came to 21 ± 1.13 nM.
